Laboratory results taken from paper PMC4859512, “Polyamino-Isoprenic Derivatives Block Intrinsic Resistance of P. aeruginosa to Doxycycline and Chloramphenicol In Vitro” (PLoS ONE, 2016).
In brackets after ≈: the same amount, converted by molar mass. Residues, ends and D or L forms follow the SMILES beside them. *: point of attachment. βNA = c1ccc2cc(N*)ccc2c1

What was measured:
CHO-K1 cells = assay: cells; type: cell-based, Chinese Hamster; details: Cricetulus griseus, CHO-K1; WST1, 24 h; mean +/- SD, 2 independent experiments
Description: (§1) CHO-K1 cells (ATCC-LGC Standards Sarl (Molsheim, France) and human fibroblasts (Clinisciences, Paris, France) were maintained in McCoy’s 5A and DMEM media, respectively, supplemented with 10% bovine calf serum, 2 mM glutamine, and 100 U/mL/10 μg/mL penicillin/streptomycin. They were incubated at 37°C in a humidified atmosphere containing 5% CO2. The cell lines were seeded in 96-well plates and incubated overnight. The cytotoxic effects of compounds were assessed by the colorimetric WST-1 cell proliferation assay as previously described. Briefly, a range of compound concentrations from 30 μM to 1200 μM was added to triplicate cultures, and cells were incubated at 37°C for 24 h. At the end of the incubation period, cultures were washed three times with phosphate buffer saline (PBS) and incubated in fresh culture medium containing 10% WST-1 for an additional 30 min. Cell viability was evaluated by measuring the WST-1 absorbance at 450 nm in a microplate spectrophotometer MRX1 II (Dynex technologies, Chantilly, VA, USA). The Inhibitory Concentration 50% (IC50) was chosen to evaluate the cytotoxicity of compounds. IC50 was defined as the concentration of a compound that induced a 50% decrease in viable cells. Doxorubicin was used as a positive control.

human fibroblasts = assay: WST-1 cytotoxicity test, fibroblasts; type: cell-based; details: Homo sapiens, Fibroblast; WST1, 24 h; mean +/- SD, 2 independent experiments
Description: as §1

P. aeruginosa PA01 (wt) = assay: Antibiotic susceptibility testing (broth micro-dilution MIC), strain PA01; type: cell-based, Pseudomonas aeruginosa; details: for MIC of Amikacin in the presence of the compound / MIC of Ceftazidime in the presence of the compound / MIC of Ciprofloxacin in the presence of the compound / MIC of Ticarcillin in the presence of the compound: PA01
Description: (§2) Experiments were performed on the BAC-SCREEN platform of the UMR-MD1, with a Freedom EVO 150 liquid handling system (Tecan, Lyon, France).
(§3) The same experiment was performed using chloramphenicol (4 mg/L) in combination with 3 (10 μM final concentration). […] These experiments were performed to study the effect of our compounds on the natural resistance of P. aeruginosa. […] Experiments were performed with the ß-lactams ceftazidime and ticarcillin and ciprofloxacin and amikacin.

[1] = tested on: P. aeruginosa PA01 ERY^R (Mex CD overproducer); assay: microbe, parasite or virus in culture; type: cell-based, Pseudomonas aeruginosa; details: for MIC of Amikacin in the presence of the compound / MIC of Ceftazidime in the presence of the compound / MIC of Ciprofloxacin in the presence of the compound / MIC of Ticarcillin in the presence of the compound: PA01 ERY R
Description: as §2, §3

[2] = tested on: P. aeruginosa CMZ091 (Mex XY overproducer); assay: Antibiotic susceptibility testing (broth micro-dilution MIC), strain CMZ091; type: cell-based, Pseudomonas aeruginosa; details: for MIC of Amikacin in the presence of the compound / MIC of Ceftazidime in the presence of the compound / MIC of Ciprofloxacin in the presence of the compound / MIC of Ticarcillin in the presence of the compound: CMZ091
Description: as §2
(§4) We concluded that compound 3 was the best compound and suitable for a more detailed study. The same experiment was performed using chloramphenicol (4 mg/L) in combination with 3 (10 μM final concentration). Amongst the 20 clinical isolates, the growth of 15 (75%) was impaired, while 5 (25%) were resistant (data not shown). These experiments were performed to study the effect of our compounds on the natural resistance of P. aeruginosa. In addition, we were wondering if compound 3 could also increase susceptibility to other antibiotic families including ß-Lactams, fluoroquinolones and aminoglycosides, that are representative of the main classes of anti-pseudomonal agents. Experiments were performed with the ß-lactams ceftazidime and ticarcillin and ciprofloxacin and amikacin. […] . […] To better characterize compound 3, we first searched for the minimum concentration of compound that allowed killing of bacteria by doxycycline, and PAßN was used as the reference molecule.

P. aeruginosa PA01 [3] = assay: Comparison of efficiency between compounds and PAßN (compound gradient with 2 mg/L doxycycline); type: cell-based, Pseudomonas aeruginosa; details: PA01, doxycycline 2 mg/L, 18 h
Description: Serial dilutions of each compound (from 270 μM to 0.95 μM for PAßN and from 135 μM to 0.06 μM for 3) were prepared in microplates. Doxycycline (2 mg/L) was then added to each well before inoculation of bacteria (5x10^5 cfu/mL). Optical density (600 nm) was measured after 18 hours at 37°C. Only the relevant part of the graphs are shown. Experiments were performed in triplicate.
First, we performed a checkerboard assay to analyze the synergy between doxycycline and the polyamino-isoprenic compound and between doxycycline and PAβN. For both, compound 3 and PAβN we observed a synergistic inhibition of growth when combined with doxycycline with a FIC Index of 0.09 (S2 Table). […] PAßN is generally used at a concentration greater than 10 μM to inhibit the resistance of P. aeruginosa with respect to various antibiotics, and, to our knowledge, no data have been reported in the literature on its use in combination with doxycycline. The percentage of growth inhibition was monitored as a function of compound concentration, and the results are presented in Fig 3.

[4] = tested on: P. aeruginosa PA0-7H (Mex EF overproducer); assay: Antibiotic susceptibility testing (broth micro-dilution MIC), strain PA0-7H; type: cell-based, Pseudomonas aeruginosa; details: for MIC of Amikacin in the presence of the compound / MIC of Ceftazidime in the presence of the compound / MIC of Ciprofloxacin in the presence of the compound / MIC of Ticarcillin in the presence of the compound: PA0-7H
Description: as §2, §4

P. aeruginosa PA01 [5] = assay: Checkerboard assay with doxycycline; type: cell-based, Pseudomonas aeruginosa; details: PA01
Description: Serial two-fold dilutions of antimicrobial agents were mixed together in a microtiter plate. The range of concentration of each drug was twice the MIC, down to the eleventh serial two-fold dilutions below this amount. Doxycycline was serially diluted along the X-axis, and the polyamino-isoprenic compound or PAßN was diluted along the Y-axis as indicated. Each well was inoculated with a bacterial inoculum of 5 x 10^5 CFU/ml, and the plates were incubated at 37°C for 18 h under aerobic conditions. Each plate also contained a row and a column in which a serial dilution of polyamino-isoprenic compound or doxycycline, respectively, was present alone to determine the MIC. The FIC index was calculated as follows: FIC index = FIC A + FIC B, where FIC A is the MIC of drug A in the combination/MIC of drug A alone and FIC B is the MIC of drug B in the combination/MIC of drug B alone. The combination was considered synergistic when the FIC index is ≤0.5, and antagonistic when the FIC index is > 4 [26].

[6] = tested on: P. aeruginosa PT629 (Mex AB overproducer); assay: Antibiotic susceptibility testing (broth micro-dilution MIC), strain PT629; type: cell-based, Pseudomonas aeruginosa; details: for MIC of Amikacin in the presence of the compound / MIC of Ceftazidime in the presence of the compound / MIC of Ciprofloxacin in the presence of the compound / MIC of Ticarcillin in the presence of the compound: PT629
Description: as §2, §4

[7] = tested on: P. aeruginosa FB1 (Mex B deleted); assay: Antibiotic susceptibility testing (broth micro-dilution MIC), strain FB1; type: cell-based; details: Pseudomonas aeruginosa, read-out: Minimal Inhibitory Concentration
Description: as §2

[8] = doxycycline MIC in the combination 0.125 µg/ml
[9] = doxycycline MIC in the combination 0.25 µg/ml
[10] = doxycycline MIC in the combination 0.5 µg/ml
[11] = doxycycline MIC in the combination 1 µg/ml
[12] = doxycycline MIC in the combination 2 µg/ml
[13] = doxycycline MIC in the combination 4 µg/ml
[14] = doxycycline MIC in the combination 8 µg/ml
[15] = doxycycline MIC in the combination 16 µg/ml
[16] = Pseudomonas aeruginosa, read-out: Minimal Inhibitory Concentration

## COc1cccc2c1C(=O)c1c(O)c3c(c(O)c1C2=O)C[C@@](O)(C(=O)CO)C[C@@H]3O[C@H]1C[C@H](N)[C@H](O)[C@H](C)O1 [Doxorubicin, reference compound]
CHO-K1 cells
  IC50: 48.3 ± 6.8 µM
Human fibroblasts
  IC50: 12.4 ± 2.1 µM

## NC(N)=NCCC[C@H](NC(=O)[C@@H](N)Cc1ccccc1)C(=O)Nc1ccc2ccccc2c1 [PAßN, Phenylalanine-Arginine Beta-Naphthylamide, reference compound] (H-Phe-Arg-βNA)
P. aeruginosa PA01 (wt); compound 10µM
  MIC of Amikacin in the presence of the compound: 16 µg/mL
  MIC of Ceftazidime in the presence of the compound: 2 µg/mL
  MIC of Ciprofloxacin in the presence of the compound: 0.125 µg/mL
  MIC of Ticarcillin in the presence of the compound: 32 µg/mL
P. aeruginosa PA01 (wt); compound 30µM
  MIC of Amikacin in the presence of the compound: 16 µg/mL
  MIC of Ceftazidime in the presence of the compound: 1 µg/mL
  MIC of Ciprofloxacin in the presence of the compound: ≤ 0.06 µg/mL
  MIC of Ticarcillin in the presence of the compound: 32 µg/mL
[1]; compound 10µM
  MIC of Amikacin in the presence of the compound: 2 µg/mL
  MIC of Ceftazidime in the presence of the compound: 2 µg/mL
  MIC of Ciprofloxacin in the presence of the compound: 0.125 µg/mL
  MIC of Ticarcillin in the presence of the compound: 32 µg/mL
[1]; compound 30µM
  MIC of Amikacin in the presence of the compound: 2 µg/mL
  MIC of Ceftazidime in the presence of the compound: 2 µg/mL
  MIC of Ciprofloxacin in the presence of the compound: ≤ 0.06 µg/mL
  MIC of Ticarcillin in the presence of the compound: 32 µg/mL
[2]; compound 10µM
  MIC of Amikacin in the presence of the compound: 64 µg/mL
  MIC of Ceftazidime in the presence of the compound: 2 µg/mL
  MIC of Ciprofloxacin in the presence of the compound: 0.5 µg/mL
  MIC of Ticarcillin in the presence of the compound: 16 to 32 µg/mL
[2]; compound 30µM
  MIC of Amikacin in the presence of the compound: 32 to 64 µg/mL
  MIC of Ceftazidime in the presence of the compound: 2 µg/mL
  MIC of Ciprofloxacin in the presence of the compound: 0.25 µg/mL
  MIC of Ticarcillin in the presence of the compound: 16 to 32 µg/mL
P. aeruginosa PA01 [3]
  concentration needed to inhibit growth in the presence of doxycycline: ≥ 15.6 mg/L
P. aeruginosa PA01 [3]; graphically determined on Fig 3
  concentration needed to inhibit growth in the presence of doxycycline: ≥ 30 µM
[4]; compound 10µM
  MIC of Amikacin in the presence of the compound: 4 µg/mL
  MIC of Ceftazidime in the presence of the compound: 1 µg/mL
  MIC of Ciprofloxacin in the presence of the compound: 4 µg/mL
  MIC of Ticarcillin in the presence of the compound: 8 µg/mL
[4]; compound 30µM
  MIC of Amikacin in the presence of the compound: 4 µg/mL
  MIC of Ceftazidime in the presence of the compound: 1 µg/mL
  MIC of Ciprofloxacin in the presence of the compound: 4 µg/mL
  MIC of Ticarcillin in the presence of the compound: 8 µg/mL
P. aeruginosa PA01 [5]; [8]
  Concentration of compound associated: 128 µM
  Effect: Synergistic (synergistic when the FIC index is ≤0.5)
  FIC index: 0.13
P. aeruginosa PA01 [5]; [9]
  Concentration of compound associated: 32 µM
  Effect: Synergistic (synergistic when the FIC index is ≤0.5)
  FIC index: 0.04
P. aeruginosa PA01 [5]; [10]
  Concentration of compound associated: 32 µM
  Effect: Synergistic (synergistic when the FIC index is ≤0.5)
  FIC index: 0.05
P. aeruginosa PA01 [5]; [11]
  Concentration of compound associated: 32 µM
  Effect: Synergistic (synergistic when the FIC index is ≤0.5)
  FIC index: 0.06
P. aeruginosa PA01 [5]; [12]
  Concentration of compound associated: 32 µM
  Effect: Synergistic (synergistic when the FIC index is ≤0.5)
  FIC index: 0.09
P. aeruginosa PA01 [5]; [13]
  Concentration of compound associated: 8 µM
  Effect: Synergistic (synergistic when the FIC index is ≤0.5)
  FIC index: 0.13
P. aeruginosa PA01 [5]; [14]
  Concentration of compound associated: 4 µM
  Effect: Synergistic (synergistic when the FIC index is ≤0.5)
P. aeruginosa PA01 [5]; [15]
  Concentration of compound associated: 2 µM
  Effect: Synergistic (synergistic when the FIC index is ≤0.5)
  FIC index: 0.5
P. aeruginosa PA01 [5]; combination with doxycycline
  FIC index: 0.09
[6]; compound 10µM
  MIC of Amikacin in the presence of the compound: 4 µg/mL
  MIC of Ceftazidime in the presence of the compound: 8 µg/mL
  MIC of Ciprofloxacin in the presence of the compound: 0.5 µg/mL
  MIC of Ticarcillin in the presence of the compound: > 64 µg/mL
[6]; compound 30µM
  MIC of Amikacin in the presence of the compound: 4 to 8 µg/mL
  MIC of Ceftazidime in the presence of the compound: 2 to 4 µg/mL
  MIC of Ciprofloxacin in the presence of the compound: 0.5 µg/mL
  MIC of Ticarcillin in the presence of the compound: > 64 µg/mL

## O=C(N[C@H](CO)[C@H](O)c1ccc([N+](=O)[O-])cc1)C(Cl)Cl [chloramphenicol]
P. aeruginosa PA01 (wt); [16]
  MIC: 256 µg/mL
[1]; [16]
  MIC: 256 µg/mL
[2]; [16]
  MIC: 256 µg/mL
[4]; [16]
  MIC: > 1020 µg/mL
[7]
  MIC: 8 µg/mL (≈ 24.8 µM)
[6]; [16]
  MIC: 512 µg/mL
